Consider 1 compound from ChEMBL document CHEMBL3886457, “Ethynyl derivatives” (2016).

Broadly, the Ki is the dissociation constant of the complex between target and ligand, obtained from inhibition or displacement.

The assay has as its target Metabotropic glutamate receptor 5 (Homo sapiens, UniProt P41594). Briefly: Binding Assay: For binding experiments, cDNA encoding human mGlu 5a receptor was transiently transfected into EBNA cells using a procedure described by Schlaeger and Christensen [Cytotechnology 15:1-13 (1998)]. Cell membrane homogenates were stored at -80° C. until the day of assay where upon they were thawed and resuspended and polytronised in 15 mM Tris-HCl, 120 mM NaCl, 100 mM KCl, 25 mM CaCl2, 25 mM MgCl2 binding buffer at pH 7.4 to a final assay concentration of 20 ug protein/well.Saturation isotherms were determined by addition of twelve [3H]MPEP concentrations (0.04-100 nM) to these membranes (in a total volume of 200 ul) for 1 h at 4° C. Competition experiments were performed with a fixed concentration of [3H]MPEP (2 nM) and IC50 values of test compounds evaluated using 11 concentrations (0.3-10,000 nM). Incubations were performed for 1 h at 4° C.At the end of the incubation, membranes were filtered onto unifilter (96-well white microplate with bonded GF/C filter preincubated 1 h in 0.1% PEI in wash buffer, Packard BioScience, Meriden, Conn.) with a Filtermate 96 harvester (Packard BioScience) and washed 3 times with cold 50 mM Tris-HCl, pH 7.4 buffer. Nonspecific binding was measured in the presence of 10 uM MPEP. […].

Sequence of Metabotropic glutamate receptor 5 (P41594 whole entry): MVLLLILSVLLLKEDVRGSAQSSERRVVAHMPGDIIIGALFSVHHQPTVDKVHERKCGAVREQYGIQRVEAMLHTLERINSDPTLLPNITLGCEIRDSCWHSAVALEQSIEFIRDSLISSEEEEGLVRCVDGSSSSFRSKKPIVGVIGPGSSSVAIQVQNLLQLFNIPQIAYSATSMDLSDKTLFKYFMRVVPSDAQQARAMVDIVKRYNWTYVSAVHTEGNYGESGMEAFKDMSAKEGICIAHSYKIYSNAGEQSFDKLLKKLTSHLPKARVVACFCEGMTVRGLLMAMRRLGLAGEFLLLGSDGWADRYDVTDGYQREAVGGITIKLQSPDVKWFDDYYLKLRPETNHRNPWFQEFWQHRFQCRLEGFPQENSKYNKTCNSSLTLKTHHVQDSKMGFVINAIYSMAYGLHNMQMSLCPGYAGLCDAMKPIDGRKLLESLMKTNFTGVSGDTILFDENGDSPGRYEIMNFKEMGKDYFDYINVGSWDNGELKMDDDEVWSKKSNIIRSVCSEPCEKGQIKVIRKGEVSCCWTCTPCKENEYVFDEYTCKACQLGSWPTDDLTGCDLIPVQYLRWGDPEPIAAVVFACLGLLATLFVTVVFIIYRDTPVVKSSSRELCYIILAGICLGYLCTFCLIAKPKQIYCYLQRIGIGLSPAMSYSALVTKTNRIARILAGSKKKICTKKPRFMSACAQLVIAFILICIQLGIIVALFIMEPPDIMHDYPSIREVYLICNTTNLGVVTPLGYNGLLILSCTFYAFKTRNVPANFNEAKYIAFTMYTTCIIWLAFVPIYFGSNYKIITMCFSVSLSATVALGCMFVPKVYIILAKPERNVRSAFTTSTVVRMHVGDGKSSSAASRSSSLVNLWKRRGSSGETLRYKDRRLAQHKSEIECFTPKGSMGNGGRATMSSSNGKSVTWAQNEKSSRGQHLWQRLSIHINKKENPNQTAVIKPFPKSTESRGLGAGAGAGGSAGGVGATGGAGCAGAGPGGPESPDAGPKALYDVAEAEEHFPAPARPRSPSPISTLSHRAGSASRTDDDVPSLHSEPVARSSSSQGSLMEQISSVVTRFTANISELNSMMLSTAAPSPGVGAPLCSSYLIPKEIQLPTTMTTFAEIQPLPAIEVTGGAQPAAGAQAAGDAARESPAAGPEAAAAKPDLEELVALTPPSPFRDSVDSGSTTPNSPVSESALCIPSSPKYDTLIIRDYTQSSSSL

Turning to `O=C(c1ccc(C#Cc2cccc(Cl)c2)cn1)N1CCOCC1`, the Ki was 19 nM.
